Data reported in article PMC6470589, “Contribution of Molecular Structure to Self-Assembling and Biological Properties of Bifunctional Lipid-Like 4-(N-Alkylpyridinium)-1,4-Dihydropyridines” (Pharmaceutics, 2019).
Several values for one entry are separate records, joined by “and”; a condition that tells them apart may be missing. Equal values may be shown once. Entries after “also recorded” stand apart in the source; their conditions may differ.

What was measured:
[1] = Self-assembling properties by dynamic light scattering (DLS); format: physicochemical
Procedure: Samples of compounds for dynamic light scattering (DLS) studies were prepared by thin-film hydration method in an aqueous solution at a concentration of 0.5 mg/mL for compounds 1–7, 0.25 mg/mL for compounds 8–10, and 0.1 mg/mL for compound 11. A corresponding amount of compounds was weighted in a round-bottom flask and dissolved in chloroform; then, the organic solvent was removed in vacuo, and the residue was dried in high vacuo for 1 h. An appropriate amount of deionised water was added to each flask for the preparation of stock solutions with the above-mentioned concentrations. Samples were prepared by sonication using a bath-type sonicator (Cole Parmer Ultrasonic Cleaner 8891CPX (Vernon Hills, IL, USA)). Samples were sonicated for 60 min at 50 °C.
The DLS measurements of the nanoparticles in an aqueous solution were carried out on a Zetasizer Nano ZSP (Malvern Panalytical Ltd., Malvern, UK) instrument with Malvern Instruments Ltd. Software 7.12, using the following specifications—medium: water; refractive index: 1.33; viscosity: 0.8872 cP; temperature: 25 °C; dielectric constant: 78.5; nanoparticles: liposomes; refractive index of materials: 1.60; detection angle: 173°; wavelength: 633 nm. Data were analysed using the multimodal number distribution software that was included with the instrument. The measurements were performed in triplicate in order to check their reproducibility.

[2] = test system: Saccharomyces cerevisiae, CEN.PK2 strain; experiment: Toxicity screen, serial dilution-spot test; format: cell-based; details: yeast; 24 h exposure in DI water, 28 °C; 0.0001 = no colonies at 0.001 mM;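 further: last dilution that did not fully inhibit growth with colonies still present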
Procedure: (§1) An estimation of the toxicity of 4-(N-alkylpyridinium)-1,4-DHP derivatives 3, 6, 7, and 9–11 was performed using six prokaryotic (bacteria) and one eukaryotic (yeast) microorganism species according to the procedure elaborated by Suppi et al.. The microorganisms used in the study and their origin were: Bacillus subtilis subsp. spizizenii (ATCC® 6633™*, Microbiologics®, St Cloud, MN, USA), Escherichia coli (ATCC® 8739, Microbiologics®), Klebsiella pneumoniae (Latvian Microorganisms strain collection, LMKK, strain number 535, Riga, Latvia), Micrococcus luteus (LMKK, No. 25), Pseudomonas aeruginosa (NCTC 12924, Biosciences Ltd., Dublin, Ireland), Proteus mirabilis (LMKK, No 590), and Saccharomyces cerevisiae, CEN.PK2 strain [32].
(§2) Bacteria and yeast cultures were cultivated until their exponential growth phase (optical density max 1); then, 100 µL of cell suspension was taken, washed in deionised (DI) water, and added to serially diluted samples of corresponding 4-(N-alkylpyridinium)-1,4-DHPs in DI water. All 1,4-DHPs were tested in five serially diluted concentrations (10 mM, 1 mM, 0.1 mM, 0.01 mM, and 0.001 mM). Test organisms were exposed to 1,4-DHP derivatives in DI water on 96-well microplates (Corning, Corning, NY, USA) at 28 °C for 24 h without shaking in the dark. Then, a 5 µL sample was taken from each well and spotted on yeast extract, bactopeptone, dextrose broth (YPD) (yeast extract 1%, bactopeptone 2%, glucose 2% and agar 2%) plates to test the growth of yeasts and lysogeny broth (LB) (yeast extract 0.5%, bactopeptone 1%, NaCl 0.5% and agar 2%) to test the growth for bacteria. Plates were left in 30 °C for 24 h, and assessed for microbial growth.
(§3) If there were no colonies after incubation with 1,4-DHPs in the last concentration of (0.001 mM), then their boundary concentration was set to 0.0001 mM or 0.1 µM.

Escherichia coli = experiment: Toxicity screen, serial dilution-spot test; format: cell-based; details: gram negative; 24 h exposure in DI water, 28 °C; 0.0001 = no colonies at 0.001 mM;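 further: last dilution that did not fully inhibit growth with colonies still present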
Procedure: as §1, §2, §3

Proteus mirabilis = experiment: Toxicity screen, serial dilution-spot test; format: cell-based; details: gram negative; 24 h exposure in DI water, 28 °C; 0.0001 = no colonies at 0.001 mM;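 further: last dilution that did not fully inhibit growth with colonies still present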
Procedure: as §1, §2, §3

Pseudomonas aeruginosa = experiment: Toxicity screen, serial dilution-spot test; format: cell-based; details: gram negative; 24 h exposure in DI water, 28 °C; 0.0001 = no colonies at 0.001 mM;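 further: last dilution that did not fully inhibit growth with colonies still present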
Procedure: as §1, §2, §3

[3] = test system: Bacillus subtilis subsp. spizizenii; experiment: Toxicity screen, serial dilution-spot test; format: cell-based; details: gram positive; 24 h exposure in DI water, 28 °C; 0.0001 = no colonies at 0.001 mM;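 further: last dilution that did not fully inhibit growth with colonies still present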
Procedure: as §1, §2, §3

Klebsiella pneumoniae = experiment: Toxicity screen, serial dilution-spot test; format: cell-based; details: gram negative; 24 h exposure in DI water, 28 °C; 0.0001 = no colonies at 0.001 mM;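 further: last dilution that did not fully inhibit growth with colonies still present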
Procedure: as §1, §2, §3

Micrococcus luteus = experiment: Toxicity screen, serial dilution-spot test; format: cell-based; details: gram positive; 24 h exposure in DI water, 28 °C; 0.0001 = no colonies at 0.001 mM;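 further: last dilution that did not fully inhibit growth with colonies still present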
Procedure: as §1, §2, §3

[4] = set-up: method as in PMID 9713710; details: cited from earlier work
[5] = test system: six prokaryotic (bacteria) and one eukaryotic (yeast) microorganism species; experiment: Toxicity screen, whole panel of microorganisms; format: cell-based; details: concentrations tested 10 to 0.001 mM
Procedure: as §1, §2, §3

[6] = Determination of critical aggregation concentration (CAC) by DLS; format: physicochemical; details: aqueous media
Procedure: The critical aggregation concentrations (CAC) of 4-(N-alkylpyridinium)-1,4-DHP derivatives were determined in aqueous media using a Zetasizer Nano S90 (Malvern Panalytical Ltd., Malvern, UK) instrument with Malvern Instruments Ltd. Software according to procedure described by Topel et al. and modified by our group. Briefly, as stock solutions of tested compounds were used, samples were prepared for self-assembling experiments. All of the subsequent samples were prepared starting from the concentrated stock solution, which was subjected to a serial two-fold dilution each time with water. The intensity values of scattered light (kcps) as a function of concentration of amphiphiles were analysed. The scattering intensities detected for amphiphile concentrations below CAC have an approximately constant value corresponding to water. The intensity starts to show a linear increase with concentration at the CAC, since the amount of nanoparticles increases in the solution. The intersection of the best-fit lines drawn through the data points is the preliminary CAC value of the compounds.

human erythrocytes = test system: human erythrocytes; set-up: method as in PMID 9713710; details: cited from earlier work

CCCCCCCCCCCCCCCC[n+]1cccc(C2C(C(=O)OCC)=C(C)NC(C)=C2C(=O)OCC)c1 [Compound 10]
PDI ± SD, 1 Set ([1]; freshly prepared samples): 0.10 and 0.10 ± 0.06 | Zeta-Pot ± SD ([1]; freshly prepared samples in water, 0.5 mg/mL (1–7), 0.25 mg/mL (8–10), 0.1 mg/mL (11)): +49.70 ± 7.94 mV | PDI ± SD, 2 Set ([1]; two weeks after the first set, samples stored at r.t.): 0.25 and 0.25 ± 0.05 | Stability of nanoparticles ([1]; two weeks of storage at r.t., DLS): stable after two weeks of storage; also recorded: confirmed the stability of nanoparticles | Boundary concentration, S. cerevisiae [2]: 0.0001 mM | Boundary concentration, E. coli (Escherichia coli): 0.01 mM | Boundary concentration, P. mirabilis (Proteus mirabilis): 0.01 mM | Boundary concentration, P. aeruginosa (Pseudomonas aeruginosa): 10 mM | Boundary concentration, B. subtilis [3]: 0.0001 mM | Boundary concentration, K. pneumoniae (Klebsiella pneumoniae): 0.01 mM | Boundary concentration, M. luteus (Micrococcus luteus): 0.001 mM | Release of calcein from DPPC liposomes [4]: remarkable release of calcein from DPPC liposomes | Effect on survival of microorganisms [5]: toxic at various degrees | CAC [6]: 28.2 µM | Hemolysis of human erythrocytes (human erythrocytes): induced the hemolysis of human erythrocytes
